# Patent US20200341000A1, “METHOD OF SCREENING COMPOUNDS FOR TREATING CNS DISORDERS” (SAGE THERAPEUTICS, INC., priority 2017, published 2020)
# “Also recorded” adds a separate entry of the source. Marks after values point to notes of the source that are not given here.
# Legend:
# [1] = tested on: tonic current in dentate gyms granule cells (DGGCs); experiment: Acute (allosteric) modulation of tonic current in DGGCs of hippocampal slices; type: cell-based, mice; conditions: 100 nM, 10 min acute exposure, then 100 μM picrotoxin; mean±SEM
# Protocol: Brain slices were prepared from 3- to 5-week-old male C57 mice. Mice were anesthetized with isoflurane, decapitated, and brains were rapidly removed and submerged in ice-cold cutting solution containing (mM): 126 NaCl, 2.5 KCl, 0.5 CaCl2, 2 MgCl2, 26 NaHCO3, 1.25 NaH2PO4, 10 glucose, 1.5 sodium pyruvate, and 3 kynurenic acid. Coronal 310 μm thick slices were cut with the vibratome VT1000S (Leica Microsystems, St Louis, Mo., USA). The slices were then transferred into incubation chamber filled with prewarmed (31-32° C.) oxygenated artificial cerebro-spinal fluid (ACSF) of the following composition (in mM): 126 NaCl, 2.5 KCl, 2 CaCl2, 2 MgCl2, 26 NaHCO3, 1.25 NaH2PO4, 10 glucose, 1.5 sodium pyruvate, 1 glutamine, 3 kynurenic acid and 0.005 GABA bubbled with 95% O2-5% CO2. Slices were allowed to recover at 32° C. for at least 1 hr before recording. Exogenous GABA was added in an attempt to standardize ambient GABA in the slice and provide an agonist source for newly inserted extrasynaptic GABAARs. […]
# Whole-cell currents were recorded from the dentate gyms granule cells (DGGCs) in 310-μm-thick coronal hippocampal slices. […] A 5 min period for stabilization after obtaining the whole-cell recording conformation (holding potential of −60 mV) was allowed before currents were recorded using an Axopatch 200B amplifier (Molecular Devices), low-pass filtered at 2 kHz, digitized at 20 kHz (Digidata 1440A; Molecular Devices), and stored for offline analysis.
# For tonic current measurements, an all-points histogram was plotted for a 10 s period before and during 100 μM picrotoxin application, once the response reached a plateau level. […] Series resistance and whole-cell capacitance were continually monitored and compensated throughout the course of the experiment. […] Spontaneous inhibitory post-synaptic currents (sIPSCs) were analyzed using the mini-analysis software (version 5.6.4; Synaptosoft, Decatur, Ga.). […] Only recordings with a minimum of 200 events fitting these criteria were analyzed. sIPSCs amplitude, and frequency from each experimental condition was pooled and expressed as mean±SEM. […]
# [2] = tested on: sIPSCs in dentate gyms granule cells (DGGCs); experiment: Acute (allosteric) modulation of sIPSCs in DGGCs of hippocampal slices; type: cell-based, mice; conditions: for mean sIPSC amplitude before versus during exposure / mean sIPSC decay time in the presence of compound: 100 nM; for sIPSC Amplitude / sIPSC Decay / sIPSC Frequency: 100 nM acute exposure, n = 5 to 7 neurons
# Protocol: (§1) Brain slices were prepared from 3- to 5-week-old male C57 mice. Mice were anesthetized with isoflurane, decapitated, and brains were rapidly removed and submerged in ice-cold cutting solution containing (mM): 126 NaCl, 2.5 KCl, 0.5 CaCl2, 2 MgCl2, 26 NaHCO3, 1.25 NaH2PO4, 10 glucose, 1.5 sodium pyruvate, and 3 kynurenic acid. Coronal 310 μm thick slices were cut with the vibratome VT1000S (Leica Microsystems, St Louis, Mo., USA). The slices were then transferred into incubation chamber filled with prewarmed (31-32° C.) oxygenated artificial cerebro-spinal fluid (ACSF) of the following composition (in mM): 126 NaCl, 2.5 KCl, 2 CaCl2, 2 MgCl2, 26 NaHCO3, 1.25 NaH2PO4, 10 glucose, 1.5 sodium pyruvate, 1 glutamine, 3 kynurenic acid and 0.005 GABA bubbled with 95% O2-5% CO2. Slices were allowed to recover at 32° C. for at least 1 hr before recording. Exogenous GABA was added in an attempt to standardize ambient GABA in the slice and provide an agonist source for newly inserted extrasynaptic GABAARs.
# (§2) After recovery, a single slice was transferred to a submerged, dual perfusion recording chamber (Warner Instruments, Hamden, Conn., USA) on the stage of an upright microscope (Nikon FN-1) with a 40× water immersion objective equipped with DIC/IR optics. Slices were maintained at 32° C. and gravity-superfused with ACSF solution throughout experimentation and perfused at rate of 2 ml/min with oxygenated (O2/CO2 95/5%) ACSF.
# (§3) Whole-cell currents were recorded from the dentate gyms granule cells (DGGCs) in 310-μm-thick coronal hippocampal slices. Patch pipettes (5-7MΩ) were pulled from borosilicate glass (World Precision Instruments) and filled with intracellular solution of the composition (in mM) as follows: 140 CsCl, 1 MgCl2, 0.1 EGTA, 10 HEPES, 2 Mg-ATP, 4 NaCl and 0.3 Na-GTP (pH=7.2 with CsOH). A 5 min period for stabilization after obtaining the whole-cell recording conformation (holding potential of −60 mV) was allowed before currents were recorded using an Axopatch 200B amplifier (Molecular Devices), low-pass filtered at 2 kHz, digitized at 20 kHz (Digidata 1440A; Molecular Devices), and stored for offline analysis.
# (§4) For tonic current measurements, an all-points histogram was plotted for a 10 s period before and during 100 μM picrotoxin application, once the response reached a plateau level. Recordings with unstable baselines were discarded. Fitting the histogram with a Gaussian distribution gave the mean baseline current amplitude and the difference between the amplitudes before and during picrotoxin was considered to be the tonic current. The negative section of the all-points histogram which corresponds to the inward IPSCs was not fitted with a Gaussian distribution (Kretschmannova et al., 2013; Nusser and Mody, 2002). Series resistance and whole-cell capacitance were continually monitored and compensated throughout the course of the experiment. Recordings were eliminated from data analysis if series resistance increased by >20%. Spontaneous inhibitory post-synaptic currents (sIPSCs) were analyzed using the mini-analysis software (version 5.6.4; Synaptosoft, Decatur, Ga.). Minimum threshold detection was set to 3 times the value of baseline noise signal. To assess sIPSC kinetics, the recording trace was visually inspected and only events with a stable baseline, sharp rising phase, and single peak were used to negate artifacts due to event summation. Only recordings with a minimum of 200 events fitting these criteria were analyzed. sIPSCs amplitude, and frequency from each experimental condition was pooled and expressed as mean±SEM. To measure sIPSC decay, 100 consecutive events were averaged and the decay was fitted to a double exponential and the weighted decay constant (tw) was determined. Statistical analysis was performed by using Student t-test (paired and unpaired where appropriate), where p<0.05 is considered significant.
# [3] = tested on: tonic current in dentate gyms granule cells (DGGCs); experiment: Sustained (metabotropic) enhancement of tonic current in DGGCs after 15 min exposure and washout; type: cell-based, mice; conditions: for tonic current after exposure and washout: 1 μM, vehicle 43.9±5.7 pA; for change of tonic current after exposure to different concentrations: maximal effects at 1 μM; for tonic current versus vehicle with PKC inhibitor GFX: GFX 50 μM 15 min, then co-exposure with compound 15 min, washout
# Protocol: as §1, §2, §3, §4
# [4] = tested on: plasma membrane GABAARs containing the α4 and β3 subunits; experiment: Biotinylation, surface/total GABAAR subunits in hippocampal slices of WT mice; type: cell-based
# Protocol: Hippocampi were dissected out of acute slices from 8 to 12 week old C57/B16 mice and lysed with phosphate buffer including: 20 mM Tris-HCl, 150 mM NaCl, 5 mM EDTA, 10 mM NaF, 2 mM Na3VO4, 10 mM pyrophosphate, 0.1% SDS and 1% Triton after drug treatment. The β3 subunit was isolated using immunoprecipitation with β3 antibodies, after correction for protein content and the specific activity of labeling. Results were attained by SDS/PAGE followed by autoradiography (Abramian et al., 2010). For biotinylation experiments hippocampi were dissected out of acute slices from 8 to 12 week old C57/B16 mice and incubated in artificial cerebrospinal fluid (ACSF) described above at 30° C. for 1 h for recovery before experimentation. Slices were then placed on ice and incubated for 30 min with 1 mg/mL NHS-SS-biotin (Pierce). Excess biotin was removed by a 50 mM glycine quenching buffer, followed by washing of slices three times in ice-cold ACSF. The tissue was snap frozen on dry ice for 5 min, thawed at 4° C. and lysed. The lysates were solubilized with 2% Triton at 4° C. on a rotating wheel for 1 h. The insoluble material was removed by centrifugation, and 350-500 μg of protein lysate were incubated with NeutrAvidin beads (Pierce) for 18-24 h at 4° C. Bound material was eluted with sample buffer and subjected to SDS/PAGE and then immunoblotted with the indicated antibodies. Blots were then quantified using the CCD-based ChemiDoc XRS ? system. Antibodies against the β3 subunit and the phospho-β3 antibody were generated and verified by the laboratory of S.J.M. (Vien et al., 2015).
# Hippocampal slices were treated as outlined above. Treated slices were then subject to biotinylation and lysis, and surface fractions were isolated on immobilized avidin. Surface (S) and total (T) fractions were immunoblotted with α4 and β3 subunit antibodies.
# Consistent with the examples above, hippocampal slices from WT and S408/9A mice were treated for 20 min with 100 nM SGE-516 or vehicle (Con) and subjected to biotinylation followed by immunoblotting with β3 and α4 subunit antibodies. The ratio of surface/total (S/T) immunoreactivity was then normalized to levels seen in control (100%).
# [5] = tested on: sIPSCs in DGGCs (mutant mice); experiment: Decay time of sIPSCs in DGGCs of mutant mice; type: cell-based; conditions: 100 nM
# Protocol: The ability of 100 nM ALLO to modulate the decay time of sIPSCs was compared in DGGCs from WT and S940A mice as detailed in FIG. 2.
# [6] = tested on: tonic current in DGGCs (β3 S408/9A mutant); experiment: Sustained effect on tonic current in DGGCs from S408/9A mice; type: cell-based; conditions: 100 nM, slices from S408/9A mice
# [7] = 15 min incubation, 30-60 min wash
SMILES,tonic current during acute exposure [1],mean sIPSC amplitude before versus during exposure [2],mean sIPSC decay time in the presence of compound [2],sIPSC Amplitude [2],sIPSC Decay [2],sIPSC Frequency [2],"increase in tonic current in the absence or presence of strychnine ([3]; 100 nM ALLO 15 min, strychnine 100 nM)","change of tonic current versus vehicle ([3]; 100 nM, 15 min incubation, 30-60 min wash)","tonic current after exposure and washout [3, 7]","change of tonic current after exposure to different concentrations [3, 7]",tonic current versus vehicle with PKC inhibitor GFX [3],"GABAA-β3-containing receptors at the plasma membrane (surface β3/T-β3) ([4]; 100 nM, 20 min)",decay time of sIPSCs [5],"tonic current in DGGCs after incubation and extensive washout ([3]; 100 nM, WT slices)","plasma membrane levels of GABAARs containing α4 and β3 subunits, S/T normalized to control (100%) ([4]; 100 nM, 20 min, WT mice)","plasma membrane accumulation of the α4 and β3 subunits ([4]; hippocampal slices, biotinylation)",tonic current in DGGCs after incubation and extensive washout [6]
"CC(=O)[C@H]1CC[C@H]2[C@@H]3CC[C@H]4C[C@H](O)CC[C@]4(C)[C@H]3CC[C@]12C [ALLO, Allopregnanolone]",58.3±13.0 pA,no significant difference,significantly increased,59.1 ± 0.6 pA,19.2 ± 1.3^a ms,3.4 ± 1.0 Hz,no difference,significant increase,95.8±10.8 pA,concentration-dependent increase; also recorded: significantly enhanced,no significant difference; also recorded: No change,increases,did not increase,,,,
C[C@@]1(O)CC[C@H]2[C@H](CC[C@@H]3[C@@H]2CC[C@]2(C)[C@@H](C(=O)Cn4nccn4)CC[C@@H]32)C1 [SGE-516],49.2±8.9 pA,no significant difference,significantly increased,52.9 ± 0.7 pA,15.1 ± 0.8^b ms,4.6 ± 0.6 Hz,,,123.0±22.2 pA,concentration-dependent increase; also recorded: significantly enhanced,no significant difference; also recorded: No change,increases,,significant increased,175-185%,increased,did not modify
